Measured values from patent US20200368211A1, “INHIBITION OF GAMMA-GLUTAMYLTRANSFERASE AND GLUTATHIONE CATABOLISM TO ENHANCE THE EFFICACY OF NF-KB SIGNALLING PATHWAY INHIBITORS” (UNIVERSITAET HEIDELBERG, priority 2017, published 2020).
Like-named read-outs stand apart in the source and are kept apart here.

Legend:
Format in all cases: cell-based, human
MOLM13 cells [1] = experiment: MTT cell proliferation assay, MOLM13 cells
Description: For metabolic activity assays, here MTT-assays, cell density was 3×10^4 cells per well (96 well plate). For ROS/superoxide detection assays cell density was 1×10^5 per tube (volume 1 ml). […] The MTT or XTT assay is the most reliable for assessment of cell growth. In principal all assays are based on staining of viable cells after treatment. Cytotoxic effects in cell lines may also be assessed by [^3H] thymidine incorporation (see below). Cell proliferation was assessed by the MTT assay. […] The plates were incubated for 72 h under standard conditions. After addition of 15 μl of a 5 mg/ml MTT solution (MTT; Sigma, Germany) to each well and incubation for another 4 h, 100 μl/well of a 10% sodium dodecyl sulphate solution in 0.01 M hydrochloric acid were added and the plates were incubated overnight under the same conditions (stain development). Subsequently, the absorbance of each well at 540 nm (reference wavelength 690 nm) was recorded with an absorbance plate reader (Sunrise, Tecan, Switzerland). Blank control values (no drug, no cells) were subtracted from the sample values and the means of replicate wells for each drug dilution and the control (cells grown in absence of the drug) were used to calculate the extent of relative cell proliferation (as percentage of the control) and growth inhibition.

HL60 cells = experiment: MTT cell proliferation assay, HL60 cells
Description: For assessment of cytostatic and/or cytotoxic effects HL60 cells were washed in serum-free RPMI-1640 medium supplemented with 2 mM L-glutamine and 1% penicillin/streptomycin and diluted to 1.25×10^5/ml (logarithmic cell growth). Cells were incubated with OU749 for 10 minutes prior to addition of serum (FCS or HS, both 10%) to washed cells resulting in a density of 1.11×10^5/ml. For MTT-assays cell density was 1×10^4 cells per well (96 well plate).
The MTT or XTT assay is the most reliable for assessment of cell growth. In principal all assays are based on staining of viable cells after treatment. Cytotoxic effects in cell lines may also be assessed by [^3H] thymidine incorporation (see below). Cell proliferation was assessed by the MTT assay. After washing in serum-free medium, pre-incubation with inhibitors of the glutathione catabolism, and addition of defined serum or albumin or serum+albumin concentrations, 90-μl aliquots of the cell suspension (density see above) were dispensed into 96-well flat-bottomed microtitre plates containing 10 μl/well of serial drug dilutions. The plates were incubated for 72 h under standard conditions. After addition of 15 μl of a 5 mg/ml MTT solution (MTT; Sigma, Germany) to each well and incubation for another 4 h, 100 μl/well of a 10% sodium dodecyl sulphate solution in 0.01 M hydrochloric acid were added and the plates were incubated overnight under the same conditions (stain development). Subsequently, the absorbance of each well at 540 nm (reference wavelength 690 nm) was recorded with an absorbance plate reader (Sunrise, Tecan, Switzerland). Blank control values (no drug, no cells) were subtracted from the sample values and the means of replicate wells for each drug dilution and the control (cells grown in absence of the drug) were used to calculate the extent of relative cell proliferation (as percentage of the control) and growth inhibition. Since inhibitors were initially dissolved in DMSO, serial drug dilutions and controls were prepared to finally achieve 0.2% DMSO in all wells (total volume 100 μl); no anti-proliferative effects could be observed at this DMSO concentration in the investigated cell lines.
After washing in serum-free medium cells were diluted to desired density (3.70×10^5/ml for MEC1 and MOLM13, 1.25×10^5/ml for HL60) and HS and FCS was added both in a final concentration of 10%. Then 90-μl aliquots of the cell suspension (densities after addition of serum: 3.33×10^5/ml for MEC1 and MOLM13, 1.1×10^5/ml for HL60) were dispensed into 96-well flat-bottomed microtitre plates containing 10 μl/well of serial drug dilutions of NF-κB inhibitors. The cell concentrations in the 96 well plate were: 3×10^4/well for MEC1 and MOLM13, 1×10^4/well for HL60.
Then 90-μl aliquots of the cell suspension (densities after addition of serum: 3.33×10^5/ml for MEC1 and MOLM13, 1.1×10^5/ml for HL60) were dispensed into 96-well flat-bottomed microtitre plates containing 10 μl/well of serial drug dilutions of NF-κB inhibitors. The cell concentrations in the 96 well plates were: 3×10^4/well for MEC1 and MOLM13, 1×10^4/well for HL60.

MEC1 cells = experiment: Intracellular ROS/superoxide detection by flow cytometry, MEC1 cells; settings: 10% FCS (OU749 100 μM) and 10% HS (OU749 200 μM); sorafenib 10 μM
Description: (§1) Intracellular ROS/superoxide levels were assessed by the ROS/superoxide Detection Assay Kit (ab139476, Abcam, Cambridge, UK) according to the manufacturer's protocol.
(§2) Cells were incubated with OU749 for 10 minutes prior to addition of serum or albumin (FCS or HS, both 10%, BSA or different HSA preparations as indicated), or albumin-supplemented FCS (supplementation with HSA or BSA: final albumin concentration 4-5 mg/ml). The final cell concentration was 1×10^5/ml/tube (volume 1 ml). Mean fluorescence intensities of at least 10000 events were assessed and compared.
(§3) ROS and superoxide levels were assessed by flow cytometry using the cellular ROS/superoxide Detection Assay Kit (ab139476, Abcam, Cambridge, UK) according to the manufacturer's protocol. […] Mean fluorescence intensities of at least 10000 events were assessed and compared.

MOLM13 cells [2] = experiment: Intracellular ROS/superoxide detection by flow cytometry, MOLM13 cells; settings: 10% FCS (OU749 100 μM) and 10% HS (OU749 200 μM); sorafenib 10 nM
Description: as §1, §2, §3

[3] = Homo sapiens, MOLM-13, 10% HS, DMSO control, 72 h treatment, read-out: IC50, proliferation of MOLM13 cells in HS, DMSO control
[4] = Homo sapiens, MOLM-13, 10% HS, plus 200 μM OU749, 72 h treatment, read-out: IC50, proliferation of MOLM13 cells in HS after addition of OU749
[5] = Homo sapiens, MOLM-13, 10% fetal calf serum, 72 h treatment, read-out: IC50, proliferation of MOLM13 cells, FCS 10%
[6] = MOLM-13, 10% human serum, 72 h treatment, read-out: IC50, proliferation of MOLM13 cells, HS 10%
[7] = HL-60, 10% human serum, 72 h treatment, read-out: IC50, proliferation of HL60 cells, HS 10%
[8] = Homo sapiens, HL-60, 10% HS, DMSO control, 72 h treatment, read-out: IC50, proliferation of HL60 cells in HS, DMSO control
[9] = Homo sapiens, HL-60, 10% HS, plus 200 μM OU749, 72 h treatment, read-out: IC50, proliferation of HL60 cells in HS after addition of OU749
[10] = Homo sapiens, HL-60, 10% fetal calf serum, 72 h treatment, read-out: IC50, proliferation of HL60 cells, FCS 10%
[11] = 10% HS, DMSO control, 72 h treatment, read-out: IC50, proliferation of MOLM13 cells in HS, DMSO control
[12] = 10% HS, plus 200 μM OU749, 72 h treatment, read-out: IC50, proliferation of MOLM13 cells in HS after addition of OU749
[13] = 10% fetal calf serum, 72 h treatment, read-out: IC50, proliferation of MOLM13 cells, FCS 10%
[14] = 10% human serum, 72 h treatment, read-out: IC50, proliferation of MOLM13 cells, HS 10%
[15] = 10% HS, DMSO control, 72 h treatment, read-out: IC50, proliferation of HL60 cells in HS, DMSO control
[16] = 10% HS, plus 200 μM OU749, 72 h treatment, read-out: IC50, proliferation of HL60 cells in HS after addition of OU749
[17] = 10% fetal calf serum, 72 h treatment, read-out: IC50, proliferation of HL60 cells, FCS 10%
[18] = 10% human serum, 72 h treatment, read-out: IC50, proliferation of HL60 cells, HS 10%

Cc1oncc1C(=O)Nc1ccc(C(F)(F)F)cc1 [Leflunomide, leflunomide]
IC50 (MOLM13 cells [1]; [3]): 175 ± 48.7 µM | IC50 (MOLM13 cells [1]; [4]): 50.2 ± 2 µM | IC50 (MOLM13 cells [1]; [5]): 14.8 ± 3.55 µM | IC50 (MOLM13 cells [1]; [6]): 175 ± 48.7 µM | IC50 (HL60 cells; [7]): 77.1 ± 2.91 µM | IC50 (HL60 cells; [8]): 77.1 ± 2.91 µM | IC50 (HL60 cells; [9]): 20.3 ± 4.53 µM | IC50 (HL60 cells; [10]): 16.3 ± 1.12 µM | Intracellular ROS, NF-κB inhibitor in combination with γ-GT inhibitor, MEC1 (MEC1 cells): increases the levels of intracellular ROS | Intracellular ROS, NF-κB inhibitor in combination with γ-GT inhibitor, MOLM13 (MOLM13 cells [2]): increases the levels of intracellular ROS

Cc1ccc(S(=O)(=O)/C=C/C#N)cc1 [Bay 11-7082]
IC50 (MOLM13 cells [1]; [11]): 12.6 ± 3.51 µM | IC50 (MOLM13 cells [1]; [12]): 5.68 ± 0.08 µM | IC50 (MOLM13 cells [1]; [13]): 2.04 ± 0.2 µM | IC50 (MOLM13 cells [1]; [14]): 12.6 ± 3.51 µM | IC50 (HL60 cells; [15]): 5.04 ± 0.32 µM | IC50 (HL60 cells; [16]): 2.9 ± 0.16 µM | IC50 (HL60 cells; [17]): 2.47 ± 0.3 µM | IC50 (HL60 cells; [18]): 5.04 ± 0.32 µM | Intracellular ROS, NF-κB inhibitor in combination with γ-GT inhibitor, MEC1 (MEC1 cells): increases the levels of intracellular ROS | Intracellular ROS, NF-κB inhibitor in combination with γ-GT inhibitor, MOLM13 (MOLM13 cells [2]): increases the levels of intracellular ROS

CNC(=O)c1cc(Oc2ccc(NC(=O)Nc3ccc(Cl)c(C(F)(F)F)c3)cc2)ccn1 [Sorafenib, sorafenib]
IC50 (MOLM13 cells [1]; [3]): 0.037 ± 1e-05 µM | IC50 (MOLM13 cells [1]; [4]): 0.003 ± 0.0009 µM | IC50 (MOLM13 cells [1]; [5]): 0.002 µM | IC50 (MOLM13 cells [1]; [6]): 0.037 µM | IC50 (HL60 cells; [7]): 35.2 ± 10 µM | IC50 (HL60 cells; [8]): 35.2 ± 10.3 µM | IC50 (HL60 cells; [9]): 9.65 ± 1.06 µM | IC50 (HL60 cells; [10]): 1.44 µM | Intracellular ROS, NF-κB inhibitor in combination with γ-GT inhibitor, MEC1 (MEC1 cells): increases the levels of intracellular ROS | Intracellular ROS, NF-κB inhibitor in combination with γ-GT inhibitor, MOLM13 (MOLM13 cells [2]): increases the levels of intracellular ROS

O=C1/C(=C/c2ccccc2F)CNC/C1=C\c1ccccc1F [EF24]
IC50 (MOLM13 cells [1]; [11]): 8.53 ± 0.3 µM | IC50 (MOLM13 cells [1]; [12]): 0.84 ± 0.68 µM | IC50 (MOLM13 cells [1]; [13]): 0.3 ± 0.03 µM | IC50 (MOLM13 cells [1]; [14]): 8.53 ± 0.3 µM | IC50 (HL60 cells; [15]): 4.27 ± 0.1 µM | IC50 (HL60 cells; [16]): 0.67 ± 0.15 µM | IC50 (HL60 cells; [17]): 1.75 ± 0.33 µM | IC50 (HL60 cells; [18]): 4.27 ± 0.1 µM | Intracellular ROS, NF-κB inhibitor in combination with γ-GT inhibitor, MEC1 (MEC1 cells): increases the levels of intracellular ROS | Intracellular ROS, NF-κB inhibitor in combination with γ-GT inhibitor, MOLM13 (MOLM13 cells [2]): increases the levels of intracellular ROS
